Experimental findings from patent US9937145B2, “Sulfamate derivative compound for use in preventing or treating epilepsy” (Bio-Pharm Solutions Co., Ltd., priority 2013, dated 2018) are described below.

Holding throughout (assay type): in vivo
One assay relates to male SD rats. The assay can be described thus: MES test (anti-epilepsy activity), rats, oral (rMES po). Particulars: for ED50: Rattus norvegicus, rats, at peak time; for rMES(po) Protection %: 3 rats. As to the method:
(§1) Biological Experimental Example. 1: Measurement of Anti-Epilepsy Activity (MES-Test)
(§2) In the MES test (Ref., G. Villetti et al. Neuropharmacology 40(2001) 866-878), an electrical stimulus (mice: 50 mA, 60 Hz, 0.2 sec, and rats: 150 mA, 60 Hz, 0.2 sec in the test animal) supplied by an 11 A Shocker (IITC Life Science Company) was delivered through corneal electrodes. All mice or rats assigned to any electroshock at peak time were treated with each test compound sample which was dissolved in 20% tween 80 prepared by saline solvent applied orally before the test. […] Three doses of the test sample were administered orally to 9-18 animals (3-6 mice per dose) for evaluating the respective doses at which 50% of the animals were protected from seizure (ED50). The ED50 value (median effective close) was calculated by Litchfield and Wicoxon log-probit method which is a dose-response relationship. Experimental animals, male ICR mice and male SD rats, were purchased from OrientBio, Samtako, or Nara Biotech, Korea, and housed in cages (4-5 mice or 3 rats per cage) for 4-5 days. The range of mice body weight was between 19 and 25 grams and range of rats body weight was between 100 and 130 grams.
(§3) The obtained results are shown as mean±sem. The difference between the groups was statistically analyzed by ANOVA, and then further examined by Dunnett's test or Bonferroni test. If p is less than 0.05, it was determined that the difference between the groups had statistical significance.
(§4) The results of anti-epileptic activity of the sulfamate derivative compounds measured in the above Experimental Example are shown in the following Tables 4 and 5.

A further assay relates to male ICR mice. The assay is described as follows: MES test (anti-epilepsy activity), mice, oral (mMES po). Particulars: Mus musculus; for ED50: mice, at peak time; for responders at 50 mg/kg: injection amount 50 mg/kg; for responders at 100 mg/kg: injection amount 100 mg/kg; for responders at 80 mg/kg: injection amount 80 mg/kg. As for the experimental part:
as §1, §2, §3, §4

In another assay the test system is Male Sprague-Dawley rats. The assay is described as follows: Lithium-pilocarpine induced epilepsy test (LI-PILO), prevention test, i.p. The settings on record: rat, prevention. As for the experimental part:
Biological Experimental Example 2: Lithium-Pilocarpine Induced Epilepsy Test (LI-PILO Test)
Male Sprague-Dawley rats (purchased from Orient Bio Inc. Korea) of body weight 175 grams were used for these studies and 3 rats per cage were housed for 4-5 days. On the day prior to SE, rats received 127 mg/kg lithium chloride (Sigma, St. Louis, Mo., U.S.A.) intraperitoneally (i.p.). Approximately 18-20 h following this treatment, rats were given an i.p. injection of 43 mg/kg pilocarpine (Sigma). An i.p. injection of 2 mg/kg methyl-scopolamine (Sigma) was administered 30 min prior to pilocarpine to block the effects of the muscarinic agonist on peripheral cholinergic receptors. Test drugs were dissolved in 20% tween80 (Sigma).
The drugs were administered intraperitoneally (i.p.) in a volume of 2 ul/g body weight. Pharmacological effects of all of the test materials were evaluated to compare test groups (n=6) with a control group (n=6). Control group was administered vehicle only. The efficacy was measured 0.5, 1, 2, or 4 hours after the administration of the test material. The time point that the most animals were protected was defined as peak time and the ED50 was determined at peak time. The animals were then transferred to observation cages and observed continuously for 90 min. Seizure was elicited in approximately 95% of the control group. Protection was defined as complete absence of seizure grade 3˜5 (Racine scale; Racine, 1972) over the 90-min observation period. The effective dose of the compound necessary to protect 50% of the animals against seizures compared to controls (i.e. ED50) was determined by a curve fitting program (Excel 2007, Microsoft).
The results of Lithium-pilocarpine induced epilepsy test of the sulfamate derivative compounds measured in the above Experimental Example are shown in the following Tables 6.

Where [1] appears, read: 4 mice, read-out: mMES(po) Protection %.
Where [2] appears, read: 3 mice, read-out: mMES(po) Protection %.

Like-named read-outs stand apart in the source and are kept apart here. Marks after values point to notes of the source that are not given here.

Consider `CC1(C)O[C@@H](COS(N)(=O)=O)[C@H](c2ccccc2I)O1` [Example 28, ((4S, 5S)-5-(2-iodophenyl)-2,2-dimethyl-1,3-dioxolan-4-yl)methyl sulfamate], for which the ED50 in the assay with male SD rats was determined as 32.7 mg/kg; with male ICR mice it was 15 mg/kg; in the assay with Male Sprague-Dawley rats (ip, at peak time, read-out: Anti-epileptogenesis (rat/ip) ED50(mg/kg)), 154 mg/kg. Besides, in the assay on Male Sprague-Dawley rats, the “Anti-epileptogenesis (rat/ip) Peak Time” value is recorded as 1 h. In the case of `CC1(C)O[C@@H](COS([NH-])(=O)=O)[C@H](c2ccccc2Cl)O1.[Na+]` [Example 177, sodium ((((4S,5S)-5-(2-chlorophenyl)-2,2-dimethyl-1,3-dioxolan-4-yl)methoxy)sulfonyl)amide], in the assay on male SD rats (injection amount 3.5 mg/kg), the “rMES(po) Protection %” value is 3.5^a (100%).

Take `CC1(C)O[C@H](c2sc(Cl)nc2Cl)[C@@H](COS(N)(=O)=O)O1` [Example 163, ((4R, 5S)-5-(2,4-dichlorothiazol-5-yl)-2,2-dimethyl-1,3-dioxolan-4-yl)methyl sulfamate]: in the assay with male SD rats, the ED50 worked out at 6.5 mg/kg. For the same compound, in the assay with male ICR mice (setting [1]), the responders at 50 mg/kg turned out to be 50%. Turning to `CC1(C)OC(COS(N)(=O)=O)C(c2ccccc2Cl)O1` (mixture of isomers) [Example 4, (5-(2-chlorophenyl)-2,2-dimethyl-1,3-dioxolan-4-yl)methyl sulfamate(SR & RS mixture)], the ED50 with male SD rats turned out to be 5.2 mg/kg. Besides, in the assay with male ICR mice (setting [2]), the responders at 50 mg/kg stood at 33%. On to `Cc1nc(Cl)sc1[C@H]1OC(C)(C)O[C@@H]1COS(N)(=O)=O` [Example 169, ((4R, 5S)-2,2-dimethyl-5-(2-chloro-4-methylthiazol-5-yl)-1,3-dioxolan-4-yl)methylsulfamate], for which, in the assay on male SD rats (injection amount 15 mg/kg), the “rMES(po) Protection %” value is given as 15^a (100%). Besides, in the assay on male ICR mice (injection amount 30 mg/kg, 3 mice, read-out: mMES(po) Protection %), the responders at 30 mg/kg came out at 100%. `CC1(C)O[C@@H](COS(N)(=O)=O)[C@H](c2sc(Cl)nc2Cl)O1` [Example 164, ((4S, 5R)-5-(2,4-dichlorothiazol-5-yl)-2,2-dimethyl-1,3-dioxolan-4-yl)methyl sulfamate]: the ED50 in the assay with male SD rats came to 13.2 mg/kg. Moreover, the responders at 50 mg/kg with male ICR mice (setting [2]) worked out at 100%. As to `Nc1ccccc1[C@@H]1OC2(CCCC2)O[C@H]1COS(N)(=O)=O` [Example 72, ((2S, 3S)-3-(2-aminophenyl)-1,4-dioxaspiro[4,4]nonan-2-yl)methyl sulfamate], the ED50 is 1 mg/kg in the assay on male SD rats and 14.2 mg/kg with male ICR mice. For `CC1(C)O[C@@H](COS(N)(=O)=O)[C@H](c2cnc(Cl)s2)O1` [Example 166, ((4R, 5S)-5-(2-chlorothiazol-5-yl)-2,2-dimethyl-1,3-dioxolan-4-yl)methylsulfamate], in the assay on male SD rats, the ED50 stood at 1.9 mg/kg. In addition, in the assay with male ICR mice (setting [2]), the responders at 100 mg/kg is 100%. As for `CC1(C)O[C@@H](COS(N)(=O)=O)[C@H](c2ccccc2F)O1` [Example 16, ((4S, 5S)-5-(2-fluorophenyl)-2,2-dimethyl-1,3-dioxolan-4-yl)methyl sulfamate], in the assay on male SD rats, the ED50 was determined as 7.7 mg/kg. Also, the responders at 50 mg/kg in the assay on male ICR mice (setting [2]) is 100%. As to `CCC1(CC)O[C@H](COS(N)(=O)=O)[C@@H](Cc2ccccc2)O1` [Example 124, ((4R, 5R)-5-benzyl-2,2-diethyl-1,3-dioxolan-4-yl)methyl sulfamate], the responders at 50 mg/kg in the assay with male ICR mice (setting [2]) turned out to be 100%. Same read-out and setting: next, `CC1(C)O[C@H](COS(N)(=O)=O)[C@@H](Cc2ccccc2)O1` [Example 122, ((4R, 5R)-5-benzyl-2,2-dimethyl-1,3-dioxolan-4-yl)methyl sulfamate]: 100%. `CC1(C)O[C@@H](COS(N)(=O)=O)[C@H](c2ccsc2)O1` [Example 171, ((4S, 5S)-2,2-dimethyl-5-(thiophen-3-yl)-1,3-dioxolan-4-yl)methylsulfamate] had an ED50 in the assay on male ICR mice of 43.3 mg/kg. Regarding `CCC1(CC)O[C@@H](COS(N)(=O)=O)[C@H](c2ccccc2Cl)O1` [Example 8, ((4S, 5S)-5-(2-chlorophenyl)-2,2-diethyl-1,3-dioxolan-4-yl)methyl sulfamate], in the assay with male ICR mice (setting [1]), the responders at 50 mg/kg was found to be 100%. With `CC1(C)O[C@H](CCOS(N)(=O)=O)[C@@H](Cc2ccccc2)O1` [Example 114, 2-((4R, 5R)-5-benzyl-2,2-dimethyl-1,3-dioxolan-4-yl)ethyl sulfamate], the responders at 80 mg/kg in the assay on male ICR mice (setting [2]) turned out to be 33.3%. `NS(=O)(=O)OCC[C@@H]1OC2(CCCC2)O[C@H]1c1ccccc1` [Example 134, 2-((2S, 3S)-3-phenyl-1,4-dioxaspiro[4,4]nonan-2-yl)ethyl sulfamate]: the responders at 50 mg/kg with male ICR mice (setting [2]) was 100%. The same measure, in the same setting: to `CCC1(CC)O[C@H](CCOS(N)(=O)=O)[C@@H](Cc2ccccc2Cl)O1` [Example 140, 2-((4R, 5R)-5-(2-chlorobenzyl)-2,2-diethyl-1,3-dioxolan-4-yl)ethyl sulfamate] belongs 33.3%. Consider `CC1(C)O[C@@H](COS(=O)(=O)[NH][Na])[C@H](c2ccccc2N)O1` [Example 66], for which the ED50 came out at 11.8 mg/kg in the assay with male SD rats and 12.3 mg/kg with male ICR mice. On to `NS(=O)(=O)OCC[C@H]1OC2(CCCCC2)O[C@@H]1Cc1ccccc1Cl` [Example 144, 2-((2R, 3R)-3-(2-chlorobenzyl)-1,4-dioxaspiro[4,5]decan-2-yl)ethyl sulfamate], for which the responders at 100 mg/kg in the assay with male ICR mice (setting [2]) was found to be 33.3%. Consider `NS(=O)(=O)OCC[C@H]1OC2(CCCC2)O[C@@H]1Cc1ccccc1` [Example 118, 2-((2R, 3R)-3-benzyl-1,4-dioxaspiro[4,4]nonan-2-yl)ethyl sulfamate], for which, in the assay on male ICR mice (setting [2]), the responders at 80 mg/kg worked out at 66.6%. The compound `Cc1ncsc1[C@@H]1OC(C)(C)O[C@H]1COS(N)(=O)=O` [Example 168, ((4S, 5R)-2,2-dimethyl-5-(4-methylthiazol-5-yl)-1,3-dioxolan-4-yl)methylsulfamate] gave an ED50 with male SD rats of 4.9 mg/kg. In the assay on male ICR mice (setting [2]), the responders at 100 mg/kg came out at 100%. With `NS(=O)(=O)OC[C@H]1OC2(CCCCC2)O[C@@H]1Cc1ccccc1` [Example 128, ((2R, 3R)-3-benzyl-1,4-dioxaspiro[4,5]decan-2-yl)methyl sulfamate], the responders at 50 mg/kg in the assay with male ICR mice (setting [2]) came out at 100%. On to `Cc1nc(Cl)sc1[C@@H]1OC(C)(C)O[C@H]1COS(N)(=O)=O` [Example 170, ((4S, 5R)-2,2-dimethyl-5-(2-chloro-4-methylthiazol-5-yl)-1,3-dioxolan-4-yl)methylsulfamate], for which the responders at 100 mg/kg in the assay on male ICR mice (setting [2]) was found to be 100%. Still for that read-out and setting: next, `CC1(C)O[C@H](c2cnc(Cl)s2)[C@@H](COS(N)(=O)=O)O1` [Example 165, ((4R, 5S)-5-(2-chlorothiazol-5-yl)-2,2-dimethyl-1,3-dioxolan-4-yl)methylsulfamate]: 100%.

`CCC1(CC)O[C@H](CCOS(N)(=O)=O)[C@@H](Cc2ccccc2)O1` [Example 116, 2-((4R, 5R)-5-benzyl-2,2-diethyl-1,3-dioxolan-4-yl)ethyl sulfamate]: in the assay on male ICR mice (injection amount 150 mg/kg, 3 mice, read-out: mMES(po) Protection %), the responders at 150 mg/kg turned out to be 33.3%. As to `NS(=O)(=O)OC[C@H]1OC2(CCCC2)O[C@@H]1Cc1ccccc1Cl` [Example 150, ((2R, 3R)-3-(2-chlorobenzyl)-1,4-dioxaspiro[4,4]nonan-2-yl)methyl sulfamate], the responders at 50 mg/kg in the assay with male ICR mice (setting [2]) came to 100%.

As for `CC1(C)O[C@@H](COS(N)(=O)=O)[C@H](c2ccc(Cl)s2)O1` [Example 172, ((4S, 5R)-2,2-dimethyl-5-(5-chlorothiophen-2-yl)-1,3-dioxolan-4-yl)methylsulfamate], the ED50 in the assay on male SD rats worked out at 4.7 mg/kg; with male ICR mice, 30.2 mg/kg. For `NS(=O)(=O)OC[C@@H]1OC(=O)O[C@H]1c1ccccc1[N+](=O)[O-]` [Example 90, ((4S, 5S)-5-(2-nitrophenyl)-2-oxo-1,3-dioxolan-4-yl)methyl sulfamate], in that order: 1.1 mg/kg and 9.2 mg/kg.
